In PubChem BioAssay (NCI):
Where “and” joins values, the source holds several entries; their conditions need not be identical. Equal entries are not always repeated.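 Growth conditions: 96-well plates. Treatment: test compound, 48 hours, 5 concentrations. Analysis: linear interpolation between bracketing concentrations; unreached endpoints set to highest concentration. Here, GI50 denotes the concentration required for 50% inhibition of growth. TGI denotes the concentration required for complete inhibition of growth.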

Tests used:
Experiment in all cases: NCI anticancer screen, dose series, 48 h
COLO 205 colon = test system: COLO 205 colon
HS 578T breast = test system: HS 578T breast
LOX IMVI melanoma = test system: LOX IMVI melanoma
MCF7 breast = test system: MCF7 breast
MDA-MB-231 breast = test system: MDA-MB-231 breast
NCI-H460 lung = test system: NCI-H460 lung
OVCAR-3 ovarian = test system: OVCAR-3 ovarian
RXF 393 renal = test system: RXF 393 renal
SNB-19 CNS = test system: SNB-19 CNS
SW-620 colon = test system: SW-620 colon

Structure (SMILES)	GI50 (COLO 205 colon) [µM]	TGI (COLO 205 colon)	GI50 (HS 578T breast) [µM]	TGI (HS 578T breast) [µM]	GI50 (LOX IMVI melanoma) [µM]	TGI (LOX IMVI melanoma) [µM]	GI50 (MCF7 breast) [µM]	TGI (MCF7 breast)	GI50 (MDA-MB-231 breast) [µM]	TGI (MDA-MB-231 breast)	GI50 (NCI-H460 lung) [µM]	TGI (NCI-H460 lung)	GI50 (OVCAR-3 ovarian) [µM]	TGI (OVCAR-3 ovarian)	GI50 (RXF 393 renal) [µM]	TGI (RXF 393 renal)	GI50 (SNB-19 CNS) [µM]	TGI (SNB-19 CNS)	GI50 (SW-620 colon) [µM]	TGI (SW-620 colon) [µM]
CCOc1ccc2c(c1)CN(Cc1ccc(Cl)cc1)CO2	19	36.1 µM	18.2	53.7	17.2	33.4	16.4	35.2 µM	12.9	34.6 µM	16	32.4 µM	21.6	51.1 µM	13.8	29.3 µM	24.6	> 100 µM	16.4	32.1
ClCc1ccc(Cn2cnc3c(Cl)ncnc32)cc1	13.7	> 100 µM	13.6	29.1	5.8	20.4	4.65	55.7 µM	10.4	20.8 µM	1.34	15.6 µM	8.73	18.5 µM	13	30.4 µM	16.9	43.3 µM	7.67	19.4
CCCCN=C(N)c1ccc(N2CCCN(c3ccc(C(N)=NCCCC)cc3)CC2)cc1	6.82	> 100 µM	5.02	> 90.7	22.5	> 67.6	7.44	> 100 µM	27.7	> 100 µM	4.15	97.6 µM	8.73	> 81.7 µM	–	> 68.3 µM	> 21.4	> 100 µM	13.6	> 100
CCN(CC)c1ccc(C2NC(=O)c3ccccc3N2)cc1 (stereo unspecified)	–	4.51 µM	–	> 30	–	> 100	–	> 100 µM	–	7.76 µM	–	7.14 µM	–	> 100 µM	–	> 100 µM	–	> 100 µM	–	> 100
COc1ccc2nc3cc([N+](=O)[O-])ccc3c(NNc3ccccc3)c2c1	17.1	37.5 µM and 29.5 µM	–	> 100	14.5	> 100	4.34	19.6 µM and 45.4 µM	5.69	30 µM and 54.2 µM	–	25.2 µM and 42.3 µM	10.2	21.9 µM and > 100 µM	11.8	27.6 µM and > 100 µM	18.2	57.1 µM and > 100 µM	19.8	> 100
NC(Cc1c[nH]c2ccc(F)cc12)C(=O)O (stereo unspecified)	340	1010 µM	506	1590	509	1860	911	> 2500 µM	600	1670 µM	730	> 2500 µM	724	> 2500 µM	887	> 2500 µM	1680	> 2500 µM	1170	> 2500
O=C1c2ccccc2C(=O)c2c1ccc1c(=O)n(-c3ccccc3C(F)(F)F)nnc21	1.83	4.28 µM	3.04	> 100	1.59	4.2	1.86	4.64 µM	2.07	7.04 µM	1.97	5.07 µM	0.315	1.42 µM	2.15	4.87 µM	2.68	31.2 µM	3.43	> 100
O=C(CCl)Nc1cc(Cl)c(Cl)cc1Cl	–	3.35 µM	–	8.56	–	3.03	–	3.6 µM	–	2.9 µM	–	7.04 µM	–	3.31 µM	–	4.58 µM	–	4.43 µM	–	5.72
C(=Nc1cnc2ccccc2c1)c1ccc2ccccc2n1	–	> 100 µM	–	> 100	–	> 100	–	> 100 µM	–	> 100 µM	–	> 100 µM	–	> 100 µM	–	> 100 µM	–	> 100 µM	–	> 100
OCc1ccc(N2CCc3cc(F)ccc3C2)cc1Cl	0.0828	0.353 µM	21.3	59.1	9.7	24.5	0.0771	13.3 µM	12.9	26.2 µM	0.0583	1.84 µM	0.0518	0.288 µM	0.993	17.5 µM	13.2	26.3 µM	0.17	15.8
COc1ccc(C(=O)O[C@H]2[C@H](O[C@H]3[C@@H](O)COC(O[C@H]4C[C@H]5[C@@H]6CC=C7C[C@@H](O)CC[C@]7(C)[C@H]6CC[C@]5(C)[C@H]4[C@H](C)C(=O)CCC(C)C)[C@@H]3OC(C)=O)OC[C@@H](O)[C@@H]2O)c(C)c1 (stereo partly specified)	0.0178	0.133 µM	< 0.01	0.0282	< 0.01	0.0173	< 0.01	11 µM	0.146	18.1 µM	< 0.01	3.23 µM	11.1	28.9 µM	< 0.01	< 0.01 µM	< 0.01	10.3 µM	< 0.01	0.187
Cc1ccc(-c2nc(N3CCNCC3)c3oc(-c4ccccc4)nc3n2)cc1	1.81	3.53 µM	2.53	7.69	1.88	3.43	1.85	3.75 µM	1.62	3.06 µM	1.83	3.52 µM	1.96	3.48 µM	1.7	3.19 µM	1.85	3.29 µM	2.06	3.88
CN(C)Cc1ccc(C(C)(C)C)cc1-c1cc(C(C)(C)C)ccc1CN(C)C	–	37.9 µM	–	> 100	–	> 100	–	> 100 µM	–	> 100 µM	–	> 100 µM	–	> 100 µM	–	> 100 µM	–	> 100 µM	–	> 100
COc1ccc(Cn2cc3c(c2)-c2oncc2CC3)cc1OC	0.134	0.346 µM	0.132	0.447	0.366	> 50	0.191	> 41 µM	0.255	> 14.3 µM	0.161	0.89 µM	0.134	0.35 µM	0.173	–	0.258	> 50 µM	0.153	> 50
CN(C)C=NC1CCC(C(C)(C)C)CC1 (stereo unspecified)	–	33.2 µM	–	42	–	29.7	–	> 100 µM	–	26.7 µM	–	35.1 µM	–	28.8 µM	–	45.6 µM	–	39.9 µM	–	34.4
O=C1C=CC(=Nc2cccc3c(N=C4C=CC(=O)O4)cccc23)O1	–	40.4 µM	–	> 100	–	91.2	–	> 100 µM	–	> 100 µM	–	> 100 µM	–	> 100 µM	–	50 µM	–	> 100 µM	–	34.3
COc1cccc(/C=C/c2ccnc3ccccc23)c1OC	–	> 10 µM	–	> 10	–	> 10	–	> 10 µM	–	> 10 µM	–	> 10 µM	–	> 10 µM	–	> 10 µM	–	> 10 µM	–	> 10
C[C@@H](NC(=O)c1ncnc(N)c1Cl)c1ncc(C(=O)Nc2cc(C(F)(F)F)c(Cl)cn2)s1	0.616	24.3 µM	23.4	98.9	3.32	54	19.9	66.1 µM	5.37	41.5 µM	20.4	79.9 µM	24.6	70 µM	24.2	68.7 µM	26.6	> 100 µM	11	> 75.5
Cc1ccc(Cl)cc1NC(=O)c1cc2ccccc2cc1O	1.7	3.48 µM	0.304	1.96	0.213	1.49	1.35	4.88 µM	0.377	2.06 µM	0.376	2.28 µM	0.313	1.02 µM	0.55	2.23 µM	0.442	> 40.1 µM	0.414	> 100
Cc1ccc(/C=C/c2c(C(=O)/C=C/c3ccc(Cl)cc3)c(C)nc3ccccc23)cc1	2.17	5.46 µM	2.75	8.66	1.53	2.87	1.58	4.95 µM	1.77	3.68 µM	1.73	3.49 µM	1.84	3.51 µM	1.79	3.45 µM	1.75	3.28 µM	1.9	5.11
Cc1ccc(NC(=O)Nc2c(Cl)cccc2Cl)cn1	3.61	24.3 µM	1.94	6.89	21.3	> 100	7.29	> 100 µM	7.66	> 100 µM	4.91	36.1 µM	4.5	22.7 µM	5.85	30.9 µM	26.1	> 100 µM	4.24	> 100
